Values of other authors in patent US11364187B2, “Compositions and methods for preventing and reversing aspects of aging” (CENTERS FOR AGE CONTROL, INC., priority 2017, dated 2022).

Key:
[1] = 60 year old human equivalent mice, one week of injections
[2] = human body
SIRT1 enzyme = molecular target: T1, SIRT1 enzyme (Homo sapiens, UniProt Q96EB6); conditions: in vitro
T1 sequence (Q96EB6 1-747): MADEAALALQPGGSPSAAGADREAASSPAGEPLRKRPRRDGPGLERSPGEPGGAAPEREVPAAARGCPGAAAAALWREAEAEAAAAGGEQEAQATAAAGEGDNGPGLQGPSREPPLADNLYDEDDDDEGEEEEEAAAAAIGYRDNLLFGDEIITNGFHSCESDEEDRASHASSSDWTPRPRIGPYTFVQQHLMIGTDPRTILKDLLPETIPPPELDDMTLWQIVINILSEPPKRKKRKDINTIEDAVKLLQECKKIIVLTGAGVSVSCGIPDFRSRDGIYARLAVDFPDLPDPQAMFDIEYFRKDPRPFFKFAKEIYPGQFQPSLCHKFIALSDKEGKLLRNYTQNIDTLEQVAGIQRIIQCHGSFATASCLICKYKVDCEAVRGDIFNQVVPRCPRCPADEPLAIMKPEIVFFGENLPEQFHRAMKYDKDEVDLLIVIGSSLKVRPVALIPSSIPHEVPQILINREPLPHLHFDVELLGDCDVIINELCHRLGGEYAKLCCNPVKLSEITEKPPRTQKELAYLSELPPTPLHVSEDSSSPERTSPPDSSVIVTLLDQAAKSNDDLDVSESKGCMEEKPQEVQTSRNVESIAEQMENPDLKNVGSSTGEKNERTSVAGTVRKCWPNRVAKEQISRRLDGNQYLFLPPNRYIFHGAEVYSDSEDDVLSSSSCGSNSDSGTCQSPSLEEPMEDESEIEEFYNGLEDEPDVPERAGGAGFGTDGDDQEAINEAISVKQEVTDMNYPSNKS

[3] = topically applied

NC(=O)c1ccc[n+]([C@@H]2O[C@H](COP(=O)([O-])O)[C@@H](O)[C@H]2O)c1 [NMN, nicotinamide mono nucleotide]
muscle tissue age appearance [1]: muscle tissue resembling 20 years old

COc1cc(/C=C/c2ccc(O)cc2)cc(OC)c1 [Pterostilbene]
absorption [2]: about 80% | absorption relative to resveratrol [2]: about four times more effectively

NC(=O)c1cccnc1 [nicotinamide]
effect on SIRT1 enzyme (SIRT1 enzyme): direct inhibitor of SIRT1 enzyme in vitro | wrinkles and dark spots on skin [3]: reduces the wrinkles and dark spots on skin
